According to ChEMBL document CHEMBL1131315, “Synthesis and anticonvulsant activity of 2(3H)-benzoxazolone and 2(3H)-benzothiazolone derivatives” (J Med Chem, 1998):
“And” between values parts separate entries of the source, which are not always exact repeats. Equal values may be shown once. The source made the active and inactive calls. The rule behind the calls is not given here.

Key:
Rattus norvegicus [1] = experiment: The compound was tested per os dose of 25 mg/kg for 1 hour for maximal electroshock test on rats; MES= 4/4; type: functional
[2] = The compound was tested for the toxic dose on oral administration. (Value in parenthesis indicate 95% confidence limits).; type: ADME; conditions: rat
Mus musculus [3] = experiment: The compound was tested for anticonvulsant activity in subcutaneous pentylenetetrazole seizure test (sc Met) for 4 hr in mice; active at 300 mg/kg; type: functional, organism-based; design: dose 300 mg/kg
Rattus norvegicus [4] = experiment: The compound was tested per os dose of 25 mg/kg for 1 hour for rotarod toxicity; 0/4; type: functional
Rattus norvegicus [5] = experiment: The compound was tested for the effective oral dose to inhibit 50% of the anticonvulsant in rats.(Value in parenthesis indicate 95% confidence limits).; type: functional
Rattus norvegicus [6] = experiment: The compound was tested per os dose of 25 mg/kg for 2 hours for rotarod toxicity; 0/4; type: functional
Rattus norvegicus [7] = experiment: The compound was tested per os dose of 25 mg/kg for 4 hours for maximal electroshock test on rats; MES= 2/4; type: functional
Rattus norvegicus [8] = experiment: The compound was tested per os dose of 25 mg/kg for 2 hours for maximal electroshock test on rats; MES= 3/4; type: functional
Mus musculus [9] = experiment: The compound was tested to inhibit 50% of induced maximal electroshock seizure in mice on ip administration.; type: functional
Mus musculus [10] = experiment: The compound was tested for anticonvulsant activity in subcutaneous pentylenetetrazole seizure test (sc Met) for 30 min in mice; active at 100 mg/kg; type: functional, organism-based; design: dose 100 mg/kg
Rattus norvegicus [11] = experiment: The compound was tested per os dose of 25 mg/kg for 0.5 hours for maximal electroshock test on rats; MES= 2/4; type: functional
Mus musculus [12] = experiment: The compound was tested for anticonvulsant activity in Maximal electroshock seizure test (MES) for 4 hr in mice(ip); active at 100 mg/kg; type: functional, organism-based; design: dose 100 mg/kg
Mus musculus [13] = experiment: The compound was tested for anticonvulsant activity in Maximal electroshock seizure test for 30 min in mice(ip); active at 30 mg/kg; type: functional, organism-based; design: dose 30 mg/kg
[14] = The compound was tested for time of peak effect (TPE) in hours for its toxicity in mice on ip administration.; type: organism-based; conditions: mouse, in vivo
[15] = (§1) Protective index value is the ratio between ED50 and TD50; type: functional
[16] = (§2) The compound was determined for the dose (mg/kg) by rotarod test at the time of peak neurotoxic effect in mice on ip administration.; type: ADME, organism-based; conditions: mouse, in vivo
Mus musculus [17] = experiment: Inhibition of s.c. pentylenetetrazole induced seizure in mice following i.p. administration.; type: functional
Rattus norvegicus [18] = experiment: The compound was tested per os dose of 25 mg/kg for 0.25 hours for maximal electroshock test on rats; MES= 2/4; type: functional
Rattus norvegicus [19] = experiment: The compound was tested per os dose of 25 mg/kg for 0.25 hours for rotarod toxicity; 0/4; type: functional
Rattus norvegicus [20] = experiment: The compound was tested per os dose of 25 mg/kg for 0.5 hours for rotarod toxicity; 0/4; type: functional
[21] = The compound was tested for neurologic toxicity (rotarod) test for 4 hours in mice; active at 30 mg/kg; type: organism-based; design: dose 30 mg/kg; conditions: mouse, in vivo
[22] = The compound was tested for neurologic toxicity (rotarod) test for 30 min in mice; active at 30 mg/kg; type: organism-based; design: dose 30 mg/kg; conditions: mouse, in vivo, 0.5 h
Mus musculus [23] = experiment: Time of peak effect in mice following i.p. administration.; type: functional
Rattus norvegicus [24] = experiment: The compound was tested per os dose of 25 mg/kg for 4 hours for rotarod toxicity; 0/4; type: functional
Mus musculus [25] = experiment: Anticonvulsant activity in subcutaneous pentylenetetrazole seizure test for 30 min in mice; No activity/toxicity at 300 mg/kg.; type: functional, organism-based; design: dose 300 mg/kg
Mus musculus [26] = experiment: The anticonvulsant activity in subcutaneous pentylenetetrazole seizure test (sc Met) for 4 hr in mice; no activity or no toxicity at 300 mg/kg; type: functional, organism-based; design: dose 300 mg/kg
Mus musculus [27] = experiment: The compound was tested for anticonvulsant activity in Maximal electroshock seizure test (MES) for 4 hr in mice(ip); no activity or toxicity at 300 mg/kg; type: functional, organism-based; design: dose 300 mg/kg
Mus musculus [28] = experiment: Anticonvulsant activity in Maximal electroshock seizure test at 100 mg/kg i.p. in mice.; type: functional, organism-based; design: dose 100 mg/kg
Sigma 2 receptor = experiment: Affinity on sigma 2 receptor using [3H]- DTG as radioligand
Mus musculus [29] = experiment: The compound was tested for anticonvulsant activity in Maximal electroshock seizure test (MES) for 4 hr in mice(ip); active at 300 mg/kg; type: functional, organism-based; design: dose 300 mg/kg
Mus musculus [30] = experiment: as §2; type: functional
[31] = The compound was tested for neurologic toxicity (rotarod) test for 4 hours in mice; active at 100 mg/kg; type: organism-based; design: dose 100 mg/kg; conditions: mouse, in vivo
[32] = The compound was tested for neurologic toxicity (rotarod) test for 30 min in mice; active at 300 mg/kg; type: organism-based; design: dose 300 mg/kg; conditions: mouse, in vivo, 0.5 h
[33] = molecular target: Sigma non-opioid intracellular receptor 1 (Homo sapiens) (UniProt Q99720); experiment: Ratio between the Ki(nM)values of sigma-2 and sigma-1; type: functional
Chain of Sigma non-opioid intracellular receptor 1 (Homo sapiens) (Q99720 whole entry): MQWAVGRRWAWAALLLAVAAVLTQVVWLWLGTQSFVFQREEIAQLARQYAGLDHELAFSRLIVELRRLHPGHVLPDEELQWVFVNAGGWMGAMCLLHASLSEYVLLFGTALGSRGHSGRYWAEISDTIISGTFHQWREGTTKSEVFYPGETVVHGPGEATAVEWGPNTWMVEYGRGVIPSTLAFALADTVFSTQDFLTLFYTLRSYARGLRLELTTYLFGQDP

[34] = The compound was tested for neurologic toxicity (rotarod) test for 30 min in mice; active at 100 mg/kg; type: organism-based; design: dose 100 mg/kg; conditions: mouse, in vivo, 0.5 h
Mus musculus [35] = species: Mus musculus; experiment: Protective index value is the ratio between TD50 and ED50 values.; type: functional
Rattus norvegicus [36] = experiment: The compound was tested for the toxic dose on oral administration.; type: functional
Rattus norvegicus [37] = experiment: The compound was tested for the effective oral dose to inhibit 50% of the anticonvulsant in rats.; type: functional
Mus musculus [38] = experiment: The compound was tested for anticonvulsant activity in subcutaneous pentylenetetrazole seizure test (sc Met) for 30 min in mice; active at 300 mg/kg; type: functional, organism-based; design: dose 300 mg/kg
Rattus norvegicus [39] = species: Rattus norvegicus; experiment: as §1; type: functional
Mus musculus [40] = experiment: The compound was tested to inhibit 50% of induced maximal electroshock seizure in mice on ip administration; type: functional
[41] = The compound was tested for neurologic toxicity (rotarod) test for 4 hours in mice; active at 300 mg/kg; type: organism-based; design: dose 300 mg/kg; conditions: mouse, in vivo
Mus musculus [42] = experiment: The compound was determined for the dose (mg/kg) by rotarod test at the time of peak neurotoxic effect in mice on ip administration; type: functional
Rattus norvegicus [43] = experiment: The compound was tested per os dose of 30 mg/kg for 4 hours for rotarod toxicity; 0/4; type: functional
Rattus norvegicus [44] = experiment: The compound was tested per os dose of 30 mg/kg for 2 hours for maximal electroshock test on rats; MES= 0/4; type: functional
Rattus norvegicus [45] = experiment: The compound was tested per os dose of 30 mg/kg for 0.25 hours for maximal electroshock test on rats; MES= 4/4; type: functional
Rattus norvegicus [46] = experiment: The compound was tested per os dose of 30 mg/kg for 1 hour for maximal electroshock test on rats; MES= 1/4; type: functional
Rattus norvegicus [47] = experiment: The compound was tested per os dose of 30 mg/kg for 4 hours for maximal electroshock test on rats; MES= 0/4; type: functional
Rattus norvegicus [48] = experiment: The compound was tested per os dose of 30 mg/kg for 0.5 hours for maximal electroshock test on rats; MES= 2/4; type: functional
Rattus norvegicus [49] = experiment: The compound was tested per os dose of 30 mg/kg for 0.5 hours for rotarod toxicity; 0/4; type: functional
[50] = The compound was tested for time of peak effect (TPE) in hours for its activity in mice on ip administration.; type: ADME, organism-based; conditions: mouse, in vivo
Rattus norvegicus [51] = experiment: The compound was tested per os dose of 30 mg/kg for 2 hours for rotarod toxicity; 0/4; type: functional
Rattus norvegicus [52] = experiment: The compound was tested per os dose of 30 mg/kg for 1 hour for rotarod toxicity; 0/4; type: functional
Rattus norvegicus [53] = experiment: The compound was tested per os dose of 30 mg/kg for 0.25 hours for rotarod toxicity; 0/4; type: functional

Row | SMILES | TD50 [2] | scMet (Mus musculus [3]) | ED50 (Rattus norvegicus [5]) | ED50 (Mus musculus [9]) | scMet (Mus musculus [10]) | MES (Mus musculus [12]) | Toxicity [14] | PI [15] | TD50 [16] | ED50 (Mus musculus [17]) | Rotarod toxicity [21] | Rotarod toxicity [22] | Activity (Mus musculus [23]) | scMet (Mus musculus [25]) | scMet (Mus musculus [26]) | MES (Mus musculus [28]) | MES (Mus musculus [29]) | Rotarod toxicity [34] | ED50 (Mus musculus [40]) | Rotarod toxicity [41] | further results
1 | Cn1c(=O)sc2ccccc21 | 140 mg/kg | active at 100 mg/kg | 16.2 mg/kg | 24.2 mg/kg | active at 100 mg/kg | active at 100 mg/kg | 0.25 h | 8.6 | 55.2 mg/kg | > 100 mg/kg | active at 30 mg/kg | active at 30 mg/kg | 0.25 h |  |  |  |  |  |  |  | Protected/Tested (Rattus norvegicus [1]): 4; No. of animals exhibiting toxicity / Number of animals tested (Rattus norvegicus [4]): 0; No. of animals exhibiting toxicity / Number of animals tested (Rattus norvegicus [6]): 0; Protected/Tested (Rattus norvegicus [7]): 2; Protected/Tested (Rattus norvegicus [8]): 3; Protected/Tested (Rattus norvegicus [11]): 2; MES (Mus musculus [13]): active at 100 mg/kg; Protected/Tested (Rattus norvegicus [18]): 2; No. of animals exhibiting toxicity / Number of animals tested (Rattus norvegicus [19]): 0; No. of animals exhibiting toxicity / Number of animals tested (Rattus norvegicus [20]): 0; No. of animals exhibiting toxicity / Number of animals tested (Rattus norvegicus [24]): 0
2 | CCC(=O)c1ccc2c(c1)oc(=O)n2CCCN1CCCCC1 |  |  |  |  |  |  |  |  |  |  | active at 30 mg/kg | active at 30 mg/kg |  | No activity or no toxicity at 300 mg/kg | No activity or no toxicity at 300 mg/kg | No activity or toxicity at 300 mg/kg |  |  |  |  | MES (Mus musculus [27]): No activity or toxicity at 300 mg/kg
3 | O=C(c1ccccc1)c1ccc2c(c1)sc(=O)n2CCN1CCCC1 |  |  |  | 42.5 mg/kg |  |  | 0.25 h |  |  | > 210 mg/kg |  |  | 0.25 h | No activity or no toxicity at 300 mg/kg | No activity or no toxicity at 300 mg/kg | active at 300 mg/kg | active at 300 mg/kg |  |  |  | Ki (Sigma 2 receptor): 225 nM; TD50 (Mus musculus [30]): 170 mg/kg; Rotarod toxicity [31]: active at 100 mg/kg; Rotarod toxicity [32]: active at 100 mg/kg; Ratio [33]: 4
4 | CCCCCc1ccc2nc(O)sc2c1 |  | active at 300 mg/kg |  |  |  | active at 100 mg/kg | 0.5 h |  | 137 mg/kg | 90.5 mg/kg |  |  | 0.25 h |  |  | active at 100 mg/kg |  | active at 100 mg/kg | 58.9 mg/kg | active at 100 mg/kg | PI (Mus musculus [35]): 2.3 and 1.5; TD50 (Rattus norvegicus [36]): > 120 mg/kg; ED50 (Rattus norvegicus [37]): 50.5 mg/kg; scMet (Mus musculus [38]): active at 300 mg/kg; PI (Rattus norvegicus [39]): 2.4
5 | Cn1c(=O)oc2ccccc21 | > 500 mg/kg |  | 30.6 mg/kg |  | active at 100 mg/kg |  | 0.25 h | 16.4 |  | 132 mg/kg |  |  |  |  | active at 100 mg/kg | active at 300 mg/kg | active at 300 mg/kg | active at 100 mg/kg | 50.2 mg/kg | active at 100 mg/kg | TD50 (Mus musculus [42]): 113 mg/kg; No. of animals exhibiting toxicity / Number of animals tested (Rattus norvegicus [43]): 0; Protected/Tested (Rattus norvegicus [44]): 0; Protected/Tested (Rattus norvegicus [45]): 4; Protected/Tested (Rattus norvegicus [46]): 1; Protected/Tested (Rattus norvegicus [47]): 0; Protected/Tested (Rattus norvegicus [48]): 2; No. of animals exhibiting toxicity / Number of animals tested (Rattus norvegicus [49]): 0; Activity [50]: 0.25 h; No. of animals exhibiting toxicity / Number of animals tested (Rattus norvegicus [51]): 0; No. of animals exhibiting toxicity / Number of animals tested (Rattus norvegicus [52]): 0; No. of animals exhibiting toxicity / Number of animals tested (Rattus norvegicus [53]): 0
